Reference: ChEMBL document CHEMBL5113475, “10-Alkoxy-anthracenyl-isoxazole analogs have sub-micromolar activity against a Glioblastoma multiforme cell line” (Bioorg Med Chem, 2022)
The source made the active and inactive calls. The rule behind the calls is not given here.

Each molecule was assayed on SNB-19 (assay: Antitumor activity against human SNB-19 cells assessed as cell growth inhibition measured after 24 hrs by MTT colorimetric assay). Conditions: SNB-19, 24 h.
Type: functional, cell-based
`Cc1onc(-c2c3ccccc3c(Oc3ccc4ccccc4c3)c3ccccc23)c1C(=O)Nc1cc(C(=O)N(CCCN(C)C)CCCN(C)C)n(C)c1` was tested, and the IC50 was 3.1 µM.
`Cc1onc(-c2c3ccccc3c(Oc3ccc(-c4ccccc4)cc3)c3ccccc23)c1C(=O)Nc1cc(C(=O)N(CCCN(C)C)CCCN(C)C)n(C)c1` showed an IC50 of 0.58 µM.
For `COc1c2ccccc2c(-c2noc(C)c2C(=O)Nc2cc(C(=O)N(CCCN(C)C)CCCN(C)C)n(C)c2)c2ccccc12`, the IC50 was 7.77 µM.
With `COc1ccc2c(OC)c3ccccc3c(-c3noc(C)c3C(=O)Nc3cc(C(=O)N(CCCN(C)C)CCCN(C)C)n(C)c3)c2c1Cl` the IC50 was 12.6 µM.
Molecule `COc1ccc2c(OC)c3ccccc3c(-c3noc(C)c3C(=O)Nc3cc(C(=O)N(CCCN(C)C)CCCN(C)C)n(C)c3)c2c1` has an IC50 of 4.8 µM.
`Cc1onc(-c2c3ccccc3c(Oc3ccccc3)c3ccccc23)c1C(=O)Nc1cc(C(=O)N(CCCN(C)C)CCCN(C)C)n(C)c1` gave an IC50 of 1.03 µM.
For `Cc1onc(-c2c3ccccc3c(Oc3cccc4ccccc34)c3ccccc23)c1C(=O)Nc1cc(C(=O)N(CCCN(C)C)CCCN(C)C)n(C)c1`, the IC50 was 1.07 µM.

Each molecule was assayed on Quadruplex DNA (assay: Stabilization of c-Myc G-quadruplex DNA (unknown origin ) assessed as increase in melting temperature at 2 equivalent by CD spectroscopy). Conditions: dose 2.0 equiv.
Type: nucleic-acid assay
`Cc1onc(-c2c3ccccc3c(Oc3ccc(-c4ccccc4)cc3)c3ccccc23)c1C(=O)Nc1cc(C(=O)N(CCCN(C)C)CCCN(C)C)n(C)c1` was tested, and the Activity was “Active”.
